The values below come from publication PMC7686308, “Overcoming the blood–brain barrier by Annexin A1-binding peptide to target brain tumours” (British Journal of Cancer, 2020).

In one experiment the test system is B16 cells. The experiment is described as follows: Cytotoxicity on B16 cells (CellTiter Glo). The experiment is classed as cell-based, mouse. The following applies: B16, 2 days, CellTiter Glo, GraphPad Prism; for IC50: unit from plot axis. The protocol: (§1) Drug concentration (OM) Drug concentration ( nM) […]
(§2) Supplementary Fig 7 . Cytotoxicity of peptide-conjugated SN38, free peptide s and unconjugated SN-38 and irinotecan (CPT-11) on C6 and B16 cells cultured in vitro. Rat glioma C6 and mouse melanoma B16 cells were treated with reagents shown along the top panels at the concentration indicated and cultured for 2 days. Cell viability was determined by a CellTiter Glo (Promega) assay. The IC50 of each reagent was determined using GraphPad Prism program. N.D.: not determined.
Background: Cellular ATP, detected with luciferase, serves as a proxy for viable cell number.

A further experiment has as its system C6 cells. The experiment is described as follows: Cytotoxicity on C6 cells (CellTiter Glo). The experiment is classed as cell-based, rat. The note with it: C6, 2 days, CellTiter Glo, GraphPad Prism; for IC50: unit from plot axis. The protocol:
as §1, §2

For experiment [1], the system named is B16-Luc brain and subcutaneous tumours. The experiment is described as follows: B16-Luc dual-tumour model in C57BL/6 mice. The experiment is classed as in vivo, mouse (C57BL/6). The following applies: irinotecan 50 μmoles/kg i.v. daily, 6 days. The protocol: C6-Luc cells (5 × 10^4 suspended in 2 μl PBS) were injected into C57BL/6 mouse brain striatum using a stereotaxic frame as described previously.[21] Seven days later, mice underwent imaging for luciferase-expressing tumours. To do so, 100 μl luciferin (30 mg/ml PBS) was injected peritoneally. Mice were then anesthetised under isoflurane gas (20 ml/min) supplemented with oxygen (1 ml/min) and placed under a camera equipped with a Xenogen IVIS 200 imager at both the SBP and AIST animal facilities. Photon numbers were measured for 1–10 sec or for 1 min. For the dual-tumour model, C6-Luc cells were similarly injected into the brain of NOD-SCID mice. When a brain tumour became detectable by IVIS imager, C6-Luc cells (2 × 10^5 suspended in 100 μl PBS) were injected subcutaneously into the dorsal flank of the same mice. Photon numbers in brain and subcutaneous tumours were measured using the IVIS imager. The dual-tumour model was also produced using B16-Luc cells in the isogeneic C57BL/6 mouse. B16-Luc cells (5 × 10^4) were injected into brains of 8–10-weeks-old C57BL/6 female mice as described above for C6-Luc cells. When brain tumours became detectable, B16-Luc cells (2 × 10^5 cells) were injected subcutaneously into the dorsal flank of the same mouse.
IF7C(RR)-SN38 was injected intravenously through the tail vein into tumour-bearing mice once photon number of C6-Luc brain tumour reached 5 × 10^4, which usually occurred after 2 weeks. IF7C(RR)-SN38 (142 μg or 0.0567 μmoles) dissolved in 10 μl dimethylsulfoxide (DMSO) diluted with 100 μl of 50% Cremophore EL in ethanol plus 90 μl PBS was injected intravenously through the tail vein. As the average body weight of a mouse was 18 g, IF7C(RR)-SN38 dose per injection was 3.15 μmoles/kg. For B16-Luc brain tumours, IF7C(RR)-SN38 formulated with Cremophore EL was used at the dosage 7.0 μmoles/kg. Irinotecan (CPT-11), a water soluble SN38 prodrug, was dissolved in PBS and intravenously injected into mice at 50 μmoles /kg. In another set of experiments, brain tumour-bearing mice were treated with IF7C(RR)-SN38 (100 μg or 0.0412 μmoles) dissolved in 10 μl DMSO followed by dilution with 100 μl 10% Solutol HS15 in water. In that case, drug dosage was 2.5 μmoles/kg. Similarly formulated C(RR)-SN38 served as control.
Fig. 4 Effect of IF7C(RR)-SN38 on the dual-tumour model mice. a Dual-tumour model was established with C6-Luc cells in NOD-SCID mice. C6-Luc cells were grown both in brain and under the skin of mice. When tumours in brain and subcutaneous grew by showing photon number more than 2×10^4, IF7C(RR)-SN38 (3.15 μmoles/kg) was injected intravenously daily through tail vein for 9 days. b Effect of IF7C(RR)-SN38 on a dual-tumour model with B16-Luc melanoma cells in C57BL/6 mice. Growth of B16-Luc cells were monitored as in a similar manner as in a, followed by intravenous injection with either IF7C(RR)-SN38 (7.0 μmoles/kg), irinotecan (CPT-11) (50 μmoles/kg) or buffer control daily for 6 days. The drug was diluted in Cremophore EL. In each a and b, error bars denote means ± SEM. Statistical analysis was assessed by Student’s t-test.

Experiment [2] deals with ANXA1 exhibiting a free N-terminus. The experiment is described as follows: FCS binding to ANXA1 with free N-terminus. Details: species or system human. The note with it: IF7C-A546, 37 °C, 1 h, increase in diffusion time. The protocol:
(§3) A mixture of IF7C-A546 with Anxa1 or MC16 (50 μl) was loaded into each well of a 96-well plate and incubated at 37 °C for 1 h. FCS was performed with the MF20 analytical system (Olympus) using a 543 nm He–Ne laser for illumination. Each sample was measured five times with a data acquisition time of 10 sec per measurement. IF7C(RR) binding was defined as an increase in translational diffusion time relative to a control.
(§4) Fig. 2 Binding of IF7 to the ANXA1 N-terminal domain and full-length ANXA1 protein in vitro. a Plate binding assay of N-terminal biotinylated IF7C(RR) to human MC16 peptide and its mutants. Each synthetic MC16 and its mutant peptide (10 nmoles) was bound to maleimide-activated plastic well through its C-terminal cysteine residue. Biotinylated IF7C(RR) peptide (1 μg/mL) was added to each well and binding of biotinylated peptide was detected by peroxidase-conjugated streptavidin and peroxidase colour reaction. b FCS analysis of IF7 with ANXA1 (left) and with MC16 peptides (right) in solution. […] The proposed model was further validated by dG scoring, which was calculated using MOE software with GBVI/WSA, a program allows us to compare calculated and observed energetics.[59] The IF7 docking pose was calculated to be −3.7 kcal/mol.

The test system of experiment [3] is N-terminally His-tagged ANXA1. The experiment is described as follows: FCS binding to N-terminally His-tagged ANXA1. The note with it: IF7C-A546, 37 °C, 1 h, diffusion time. More on the design: species or system human. On the procedure:
as §3, §4

In the next experiment the target is T1, Annexin A1 (Homo sapiens, UniProt P04083).
T1 chain: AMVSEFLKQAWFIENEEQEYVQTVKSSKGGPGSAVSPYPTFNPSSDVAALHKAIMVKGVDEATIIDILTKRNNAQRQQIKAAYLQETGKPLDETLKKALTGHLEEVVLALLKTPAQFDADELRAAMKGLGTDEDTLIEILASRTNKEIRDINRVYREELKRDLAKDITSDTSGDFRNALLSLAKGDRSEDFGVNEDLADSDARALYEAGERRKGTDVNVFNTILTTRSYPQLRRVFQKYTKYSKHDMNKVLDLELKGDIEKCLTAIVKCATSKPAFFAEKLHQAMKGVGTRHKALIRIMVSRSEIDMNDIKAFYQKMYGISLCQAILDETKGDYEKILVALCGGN
The experiment is described as follows: QCM.

Experiment [4] has as its target T2, MC16 (Annexin A1 N-terminal peptide), tetrameric (Homo sapiens).
T2 chain: MAMVSEFLKQAWFIEC
The experiment is described as follows: QCM.

Ends that are not written are not given here.

As to `CCc1c2c(nc3ccc(OC(=O)N4CCC(N5CCCCC5)CC4)cc13)-c1cc3c(c(=O)n1C2)COC(=O)[C@]3(O)CC` [Irinotecan], the logIC50 with B16 cells is on record as 4.443; with C6 cells it was 4.103. The IC50 was 27700 nM in the experiment on B16 cells (Mus musculus, 48 h) and 12700 nM with C6 cells (Rattus norvegicus, 48 h). Further, the “brain tumour growth (photon number)” value in experiment [1] is “minimally suppressed brain tumour growth”. In experiment [1], the “subcutaneous tumour growth (photon number)” value was “suppressed subcutaneous tumour growth”.

Take `CCc1c2c(nc3ccc(O)cc13)-c1cc3c(c(=O)n1C2)COC(=O)[C@]3(O)CC` [SN-38]: the results for the logIC50 in the experiment with B16 cells and in the experiment on C6 cells were 1.499 and 1.433, respectively. Further, the IC50 was 31.6 nM with B16 cells and 27.1 nM in the experiment with C6 cells.

As to “IFLLWQRCRR [IF7C(RR), IF7 with C-terminal cysteine extended by two arginines]”, in experiment [2], the “binding in solution to untagged ANXA1” value is given as “increased significantly compared to the control”. Moreover, the “binding in solution to N-terminally His-tagged ANXA1” value in experiment [3] was “did not significantly increase”.

With IFLLWQRCRR, the Kd in the experiment with Annexin A1 worked out at 60.1 nM. That is a double-digit nanomolar value.

With IFLLWQRCRR (not fully specified (residue 8); also: tetramer on 4-arm PEG via Cys), the Kd in experiment [4] amounted to 247 nM.

Broadly, the IC50 is the concentration that inhibits the measured activity by half. A high value points to a need for much substance. One may read the Kd as the free concentration of one partner at which half of the binding sites on the other are occupied at equilibrium, for simple one-to-one binding.
